System: MCF7 cells
Assay: Cytotoxic reagent assay: Doxorubicin, MTT live cells and 41/7 ELISA
Assay type: cell-based
Conditions: 450 nM, 1-96 hours, MCF7, FIG. 7
Protocol: 2. In this experiment, the effect of a known cancer chemotherapeutic agent (Doxorubicin, Sigma Inc.) on soluble nuclear matrix protein release into extracellular fluid was assessed.
A standard curve for live cells was established with MCF7 cells (breast carcinoma, adherent). Cells were seeded into 6 well plates in 2 mls of DME complete (5% FCS+SerXtend) with 0.5 micrograms/ml mitomycin C (Sigma, Inc., Cincinnati) to prevent any cell growth.
After incubating overnight at 37° C., 200 μl of 3-[4, 5 Dimethylthiazol-2-4] 2, 5-dipheny(tetrazoluim bromide), MTT, stock solution (5 mg/ml MTT in phosphate-buffered saline, Sigma, Inc.) were added to each well. After the plates were incubated for four hours at 37° C. and 5% CO2 the supernatants were aspirated off and 4 mls of DMSO (dimethyl sulfoxide) were added to solubilize remaining crystals. This was drawn off and the absorbance was read in the spectrophotometer at 562 nm against a blank of straight DMSO.
Cells were treated with Doxorubicin as follows: MCF7 cells were seeded into 6 well plates at a density of 1.3×10^5 cells/well in 2 mls DME complete. […]
At 1, 24, 48, 72, and 96 hours, the supernatants were removed and frozen at −20° C. to assay later. After replacing the supernatant with a fresh 2 ml of DME complete, the number of live cells was determined using the same procedure as for the standard curve. […]

## COc1cccc2c1C(=O)c1c(O)c3c(c(O)c1C2=O)C[C@@](O)(C(=O)CO)C[C@@H]3O[C@H]1C[C@H](N)[C@H](O)[C@H](C)O1 [Doxorubicin]
  cell viability (MTT live cells) versus nuclear matrix protein released (41/7 ELISA): inversely related to nuclear matrix protein released

— patent US6740494B2, “Nuclear matrix protein fluid assay” (Matritech, Inc., priority 1991, dated 2004)
